Source: the METLIN SMRT retention time set (Domingo-Almenara et al. 2019)

Experiment: gradient 5% acetonitrile 3 min, to 50% in 2 min, to 85% in 15 min, held 3 min, 100 µL/min
Settings: column: Zorbax Extend-C18 2.1 x 50 mm; eluents: water / acetonitrile, 0.1% formic acid
Summary of the method: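 Each retention time is based on an adduct peak selected computationally and verified by manual inspection. Measurements used HPLC–quadrupole time-of-flight mass spectrometry in positive and negative ionization mode on mixtures of ~100 pure standards. Chromatography ran on a Zorbax Extend-C18 column (2.1 × 50 mm, 1.8 μm) at 100 μL/min with water and acetonitrile, each containing 0.1% formic acid, and dead and dwell volumes of 40 μL and 900 μL.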
An RP-LC retention time of 795 s was found for `COc1cc(OC)cc(C(=O)N2CCC3(CC2)NC(=O)c2cc(C)ccc2N3C)c1` in this work. An RP-LC retention time of 575 s was found for `Cn1cccc1C(CNS(=O)(=O)c1ccc(F)c(Cl)c1)N1CCOCC1` (stereo not drawn) in this work. An RP-LC retention time of 713 s was found for `O=C(NCc1ccc(Cl)cc1)C1CCN(c2cnc3nccnc3c2)CC1` in this work. An RP-LC retention time of 752 s was found for `CCn1cnc(S(=O)(=O)N2CCCC(C(=O)N3CCN(c4ccc(F)cc4)CC3)C2)c1` (stereo not drawn) in this work. An RP-LC retention time of 772 s was found for `O=C(O)c1ccc(Nc2ncnc3c2cnn3Cc2ccccc2)cc1` in this work. An RP-LC retention time of 937 s was found for `COCCOCC1CCN(S(=O)(=O)c2ccc(C(F)(F)F)cc2)CC1` in this work. An RP-LC retention time of 672 s was found for `Cc1csc(-c2ccc(CNC(=O)c3cccnc3)cc2)n1` in this work. An RP-LC retention time of 869 s was found for `COc1ccc(-c2noc(CSc3nccn3-c3ccccc3)n2)cc1` in this work. An RP-LC retention time of 740 s was found for `Cc1nc(CC(=O)Nc2ccc(F)cc2Cl)sc1C(=O)NC1CC1` in this work. An RP-LC retention time of 746 s was found for `Cc1ccc(Nc2c(-c3ccc(N4CCOCC4)cc3)nc3cccc(C)n23)cc1` in this work. An RP-LC retention time of 645 s was found for `O=C(c1nc(-c2cccc(F)c2)n2c1CCCCC2)N1CCN(c2ccccn2)CC1` in this work. An RP-LC retention time of 811 s was found for `CCOc1ccc(NC(=O)C2CC(=O)N(CCc3c[nH]c4ccc(F)cc34)C2)cc1` (stereo not drawn) in this work. An RP-LC retention time of 1210 s was found for `Cc1cc(C)cc(Oc2nccn3c(=O)n(CC(=O)NCc4ccco4)nc23)c1` in this work. An RP-LC retention time of 887 s was found for `Cc1ccc(S(=O)(=O)Nc2ccc3c(c2)CCC(=O)N3CC(C)C)cc1` in this work. An RP-LC retention time of 1090 s was found for `CCOC(=O)c1cc(S(=O)(=O)N2CCN(c3cccc(C)c3)C(C)C2)c(C)n1C` (stereo not drawn) in this work. An RP-LC retention time of 747 s was found for `CC(C)NC(=O)C1CCCN(c2nc3ncn(CC(=O)Nc4cc(F)cc(F)c4)c(=O)c3s2)C1` (stereo not drawn) in this work. An RP-LC retention time of 779 s was found for `O=C1CCCN2N=C(SCc3ccc([N+](=O)[O-])cc3)SC2=N1` in this work. An RP-LC retention time of 734 s was found for `COc1ccc(-n2ccn(CC(=O)Nc3ccc(OC)c(Cl)c3)c2=O)cc1` in this work. An RP-LC retention time of 743 s was found for `CCOc1ccc(CNC(=O)C2CCN(C(=O)C3Sc4ccccc4NC3=O)CC2)cc1` (stereo not drawn) in this work. An RP-LC retention time of 1200 s was found for `Cc1ccc(NC(=O)Cn2nc(N3CCCCCC3)c3ccccc3c2=O)cc1C` in this work. An RP-LC retention time of 734 s was found for `COC(=O)c1ccccc1NC(=O)CSc1cc(C)nc(-c2cccnc2)n1` in this work. An RP-LC retention time of 1090 s was found for `Cc1nn2c(N3CCN(c4ccccn4)CC3)cc(C(C)(C)C)nc2c1-c1ccc(F)cc1` in this work. An RP-LC retention time of 930 s was found for `COc1ccc(C)cc1NC(=O)Cc1csc2nc(-c3ccc(C)c(C)c3)cn12` in this work. An RP-LC retention time of 996 s was found for `CCc1cccc(C)c1Nc1c(-c2ccc(C)cc2)nc2cnccn12` in this work. An RP-LC retention time of 712 s was found for `CNC(=O)c1noc([C@@H]2CC(F)(F)CN2C(=O)c2cccn2C)n1` in this work. An RP-LC retention time of 544 s was found for `O=C(c1cn(CC(O)c2ccccc2)nn1)N1CCN(c2ccccn2)CC1` (stereo not drawn) in this work. An RP-LC retention time of 572 s was found for `COc1cccc(CC(=O)N2CCc3nc[nH]c3C2)c1` in this work. An RP-LC retention time of 899 s was found for `COC(=O)c1cccc(C(=O)Nc2cccc(C)c2C)n1` in this work. An RP-LC retention time of 611 s was found for `O=C(Nc1ccc(C(=O)N2CCN(c3ccccn3)CC2)cc1)C1=CSCCO1` in this work. An RP-LC retention time of 883 s was found for `O=C(Nc1cccc([N+](=O)[O-])c1)C(=O)Nc1ccc2c(c1)N(C(=O)C1CC1)CCC2` in this work. An RP-LC retention time of 745 s was found for `O=S(=O)(Cc1ccccc1)N1CCN(Cc2cccc(F)c2)C2(CCOCC2)C1` in this work. An RP-LC retention time of 1310 s was found for `CCc1ccc(OCc2nc(C)c(C(=O)Nc3nc(-c4ccccc4OC)cs3)s2)cc1` in this work. An RP-LC retention time of 1260 s was found for `COc1ccc(C(=S)N2CCN(c3ccccc3Cl)CC2)cc1OC` in this work. An RP-LC retention time of 767 s was found for `COc1ccc2[nH]cc(CCNC(=O)Cn3c4ccccc4c4cnn(C)c(=O)c43)c2c1` in this work. An RP-LC retention time of 788 s was found for `CC(C)(C)NC(=O)N1CCC2(CC1)CN(c1ccccc1)C2=O` in this work. An RP-LC retention time of 1160 s was found for `COc1ccc(OC)c(S(=O)(=O)N2CCc3nc(-c4ccc(Cl)cc4)ncc3C2)c1` in this work. An RP-LC retention time of 609 s was found for `CS(=O)(=O)c1ccccc1-c1nnc(NC(=O)c2cccc(N3C(=O)CCC3=O)c2)o1` in this work. An RP-LC retention time of 1100 s was found for `COc1ccc(-c2nc(-c3cn(-c4cccc(Cl)c4)nn3)no2)cc1` in this work. An RP-LC retention time of 634 s was found for `CNC(=O)C1CCCN(c2nc3ncn(CC(=O)Nc4ccccc4F)c(=O)c3s2)C1` (stereo not drawn) in this work. An RP-LC retention time of 715 s was found for `COc1ccccc1CNC(=O)CN1CCN(Cc2ccccc2F)C1=O` in this work. An RP-LC retention time of 1090 s was found for `O=C(CCc1nc(CSc2nc3ccccc3s2)no1)Nc1nc(-c2ccccc2)cs1` in this work. An RP-LC retention time of 846 s was found for `CC(C)(C)c1ccc(S(=O)(=O)NCC(=O)Nc2ccc3c(c2)OCO3)cc1` in this work. An RP-LC retention time of 1000 s was found for `COc1ccc(C)cc1NC(=O)CN1C(=O)C2CCCCN2c2ccc(S(=O)(=O)N(C)C)cc21` (stereo not drawn) in this work. An RP-LC retention time of 693 s was found for `CC(C)Cc1ccc(S(=O)(=O)N2CCc3nc[nH]c3C2)cc1` in this work. An RP-LC retention time of 940 s was found for `CCOc1cccc(CNS(=O)(=O)c2cc3c(s2)CCN(C(=O)C2CCC2)C3)c1` in this work. An RP-LC retention time of 1050 s was found for `CC(C)c1ccc(OCC(=O)N(Cc2ccc(Br)o2)C2CCS(=O)(=O)C2)cc1` (stereo not drawn) in this work. An RP-LC retention time of 796 s was found for `Cc1noc(C)c1S(=O)(=O)N1CCCC(c2nc(CNC(=O)C(C)C)cs2)C1` (stereo not drawn) in this work. An RP-LC retention time of 656 s was found for `Cc1cc(N2CCOCC2)n2nc(CN3CCN(c4cccc(Cl)c4)CC3)nc2n1` in this work. An RP-LC retention time of 824 s was found for `COc1ccc(OCc2noc(CNS(=O)(=O)Cc3ccccc3)n2)cc1` in this work. An RP-LC retention time of 966 s was found for `CSc1ccc(-c2nc3cnccn3c2Nc2c(C)cccc2C)cc1` in this work. An RP-LC retention time of 911 s was found for `COc1ccc(CC(=O)N2CCCC2c2nc(-c3ccc(OC)c(OC)c3)no2)cc1Cl` (stereo not drawn) in this work. An RP-LC retention time of 661 s was found for `O=C(C1CCN(c2cc(N3CCCCC3)ncn2)CC1)N1CCCCCC1` in this work. An RP-LC retention time of 595 s was found for `CC1(c2nc(C3CC3)no2)CCCN(C(=O)c2ccc3nc[nH]c3c2)C1` (stereo not drawn) in this work. An RP-LC retention time of 1040 s was found for `COc1ccccc1-c1noc(-c2nnn3c2COC(c2ccc(F)cc2)C3)n1` (stereo not drawn) in this work. An RP-LC retention time of 590 s was found for `O=C(CN1CCOCC1)N1CCCCC1c1nc(C2CC2)no1` (stereo not drawn) in this work. An RP-LC retention time of 690 s was found for `CS(=O)(=O)N1CCCC1C(=O)Nc1ccccc1` (stereo not drawn) in this work. An RP-LC retention time of 1110 s was found for `CC1CCN(S(=O)(=O)c2ccc(-c3nnc(C(=O)NCc4ccccc4Cl)o3)cc2)CC1` in this work. An RP-LC retention time of 705 s was found for `Cc1ccccc1C(=O)NC1CCN(c2cc(-c3cccs3)[nH]n2)C1` (stereo not drawn) in this work. An RP-LC retention time of 596 s was found for `COCc1noc(C2CCCCN2C(=O)c2cnccn2)n1` (stereo not drawn) in this work. An RP-LC retention time of 723 s was found for `CCCCc1ccc(Nc2c(C(=O)N3CCSCC3)cnc3nc(C)ccc23)cc1` in this work. An RP-LC retention time of 598 s was found for `O=C(c1cn(-c2ccc(S(=O)(=O)N3CCOCC3)cc2)cn1)N1CCN(c2ccccn2)CC1` in this work. An RP-LC retention time of 922 s was found for `COc1ccccc1NC(=O)CN1C(=O)C(c2ccc(Cl)cc2)=NC1(C)C` in this work. An RP-LC retention time of 874 s was found for `CCCCNC(=O)Cn1c(=O)cc(-c2nc(C3CC3)no2)c2ccccc21` in this work. An RP-LC retention time of 566 s was found for `O=C(CSc1ccc(F)cc1)NCC1CCN(Cc2cccs2)CC1` in this work. An RP-LC retention time of 711 s was found for `CCN1CCCn2cc(S(=O)(=O)NCc3ccccc3)cc2C1=O` in this work. An RP-LC retention time of 609 s was found for `CCCc1cc(N2CCN(C(=O)c3ccc(C#N)cc3)CC2)nc2nncn12` in this work. An RP-LC retention time of 846 s was found for `O=S(=O)(c1ccc2nncn2c1)N(Cc1ccc(F)cc1)c1ccccc1` in this work. An RP-LC retention time of 976 s was found for `Cc1ccc(NC(=O)CN2C(=O)CCCc3cc(S(=O)(=O)N4CCC(C)CC4)ccc32)cc1` in this work. An RP-LC retention time of 989 s was found for `Cc1cccc(-c2noc(CN3N=NC4C(=O)N(c5ccccc5)C(=O)C43)n2)c1` (stereo not drawn) in this work. An RP-LC retention time of 703 s was found for `Cc1nc(Nc2ccccn2)sc1C(=O)N1CCSCC1` in this work. An RP-LC retention time of 1100 s was found for `Cc1ccc(C(=O)Nc2nccnc2C(=O)NC2CCCCC2)cc1` in this work. An RP-LC retention time of 775 s was found for `O=C(C1=CN(c2ccc(F)c(Cl)c2)c2cc(F)ccc2S1(=O)=O)N1CCOCC1` in this work. An RP-LC retention time of 849 s was found for `Cn1c(=O)c(N2CCC(NC(=O)Nc3ccc(F)cc3)CC2)nc2ccccc21` in this work. An RP-LC retention time of 1160 s was found for `CCn1nccc1-c1cccc(-c2noc(-c3ccnc(Cl)c3)n2)c1` in this work. An RP-LC retention time of 752 s was found for `CN1C(=O)CCc2cc(NC(=O)C3CCCCC3)ccc21` in this work. An RP-LC retention time of 1070 s was found for `Cc1c(C(=O)N2CCSCC2)cnn1-c1ccc(-c2nc(C(C)(C)C)no2)cn1` in this work. An RP-LC retention time of 818 s was found for `Cc1ccc(N2CCN(C(=O)c3cc(C)n4nccc4n3)CC2)cc1` in this work. An RP-LC retention time of 806 s was found for `Cn1c(=O)c(SCC(=O)NCc2cccc(Br)c2)nc2cccnc21` in this work. An RP-LC retention time of 754 s was found for `O=C1CC(/C=C/c2ccccc2)Cc2nc(N3CCN(c4ccccn4)CC3)ncc21` (stereo not drawn) in this work. An RP-LC retention time of 887 s was found for `O=S(=O)(c1cccn2cnnc12)N(Cc1ccc(F)cc1)c1ccc(F)c(F)c1` in this work. An RP-LC retention time of 722 s was found for `CCOc1ccc(S(=O)(=O)Nc2cc(-c3cn4cccc(C)c4n3)ccc2C)cc1` in this work. An RP-LC retention time of 825 s was found for `O=C(NCCc1cccs1)c1nc(Nc2ccc(F)cc2)c2ccccc2n1` in this work. An RP-LC retention time of 880 s was found for `Cc1ccc(-c2ccc(=O)n(CCCC(=O)N3CCc4ccccc43)n2)cc1` in this work. An RP-LC retention time of 842 s was found for `COc1ccc(-c2cc(N3CCN(C(=O)Cc4ccc(Br)cc4)CC3)n[nH]2)cc1` in this work. An RP-LC retention time of 833 s was found for `Cn1cccc1-c1cc2n(n1)CCC(=O)N2CCCC(=O)NCCCc1ccccc1` in this work. An RP-LC retention time of 1020 s was found for `Cc1nc(-c2ccc(S(=O)(=O)N3CCc4ccccc4C3)cc2)co1` in this work. An RP-LC retention time of 575 s was found for `CCC(=O)NCc1nc2c(n1C)CN(S(=O)(=O)c1ccc(F)c(C)c1)CC2` in this work. An RP-LC retention time of 685 s was found for `O=C1CN(S(=O)(=O)c2cccc3cccnc23)C2(CCCC2)CN1` in this work.
